Laboratory results as given in PubChem BioAssay AID328 (DTP/NCI, 2004).
Where “and” joins values, the source holds several entries; their conditions need not be identical. Equal values may be shown once. Inconclusive results and toxic doses are left out.

Tested on: BDF1 mice, P388 leukemia ip, median survival T/C
Experiment: NCI In Vivo Anticancer Drug Screen. Data for tumor model P388 Leukemia (intraperitoneal) in B6D2F1 (BDF1) mice
Conditions: endpoint: median survival time, higher = longer survival
How it was run: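 Steps: implant the tumour, treat one group with compound and another with vehicle, record survival, then divide treated by control.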

[1] = dose: 100.0 mg/kg/injection, schedule: Q01DX009 (ip), vehicle: Klucel (hydroxypropylcellulose) (HPC)
[2] = dose: 200.0 mg/kg/injection, schedule: Q01DX009 (ip), vehicle: Klucel (hydroxypropylcellulose) (HPC)
[3] = dose: 400.0 mg/kg/injection, schedule: Q01DX009 (ip), vehicle: Klucel (hydroxypropylcellulose) (HPC)
[4] = dose: 50.0 mg/kg/injection, schedule: Q01DX009 (ip), vehicle: saline with Tween-80
[5] = dose: 100.0 mg/kg/injection, schedule: Q01DX009 (ip), vehicle: saline with Tween-80
[6] = dose: 200.0 mg/kg/injection, schedule: Q01DX009 (ip), vehicle: saline with Tween-80
[7] = dose: 100.0 mg/kg/injection, schedule: Q04DX003 (ip), vehicle: saline with Tween-80
[8] = dose: 200.0 mg/kg/injection, schedule: Q04DX003 (ip), vehicle: saline with Tween-80
[9] = dose: 400.0 mg/kg/injection, schedule: Q04DX003 (ip), vehicle: saline with Tween-80
[10] = dose: 100.0 mg/kg/injection, schedule: Q01DX009 (ip), vehicle: water
[11] = dose: 200.0 mg/kg/injection, schedule: Q01DX009 (ip), vehicle: water

Q: COC(=O)C1C(O)C(C)C(O)C(C)/C=C\C=C(C)C(=O)Nc2c(C)c(OC(C)=O)c3c(c2O)C(=O)C(C)=C2OCOC(=C23)C(C)=CC(C)(O)C(O)C(C)C1O (centres undefined) was tested. Which T/C [1] did it give?
A: 115 % of control

Q: And the T/C [2]?
A: 108 % of control and 115 % of control

Q: What about the T/C [3] of the same compound?
A: 106 % of control

Q: COC(=O)[C@@H]1[C@@H](O)[C@H](OC(=O)c2cc(OC)c(OC)c(OC)c2)C[C@@H]2CN3CCc4c([nH]c5ccccc45)[C@H]3C[C@@H]21 was tested. Which T/C (dose: 1.56 mg/kg/injection, schedule: Q01DX009 (ip), vehicle: saline with Tween-80) did it give?
A: 90 % of control

Q: And the T/C (dose: 2.0 mg/kg/injection, schedule: Q01DX009 (ip), vehicle: Klucel (hydroxypropylcellulose) (HPC))?
A: 100 % of control

Q: And the T/C (dose: 3.13 mg/kg/injection, schedule: Q01DX009 (ip), vehicle: saline with Tween-80)?
A: 90 % of control

Q: And the T/C (dose: 4.0 mg/kg/injection, schedule: Q01DX009 (ip), vehicle: Klucel (hydroxypropylcellulose) (HPC))?
A: 100 % of control

Q: What about the T/C (dose: 6.25 mg/kg/injection, schedule: Q01DX009 (ip), vehicle: saline with Tween-80) of the same compound?
A: 86 % of control

Q: What about the T/C (dose: 8.0 mg/kg/injection, schedule: Q01DX009 (ip), vehicle: Klucel (hydroxypropylcellulose) (HPC)) of the same compound?
A: 100 % of control

Q: What about the T/C (dose: 16.0 mg/kg/injection, schedule: Q01DX009 (ip), vehicle: Klucel (hydroxypropylcellulose) (HPC)) of the same compound?
A: 100 % of control

Q: CC(C)(C)C1=C[P+](c2ccccc2)(c2ccccc2)C(C(C)(C)C)=C[P+]1(c1ccccc1)c1ccccc1 was tested. Which T/C (dose: 12.5 mg/kg/injection, schedule: Q01DX009 (ip), vehicle: saline) did it give?
A: 96 % of control

Q: And the T/C (dose: 12.5 mg/kg/injection, schedule: Q04DX003 (ip), vehicle: saline)?
A: 96 % of control

Q: What about the T/C (dose: 25.0 mg/kg/injection, schedule: Q01DX009 (ip), vehicle: saline) of the same compound?
A: 107 % of control

Q: What about the T/C (dose: 25.0 mg/kg/injection, schedule: Q04DX003 (ip), vehicle: saline) of the same compound?
A: 100 % of control

Q: What about the T/C (dose: 50.0 mg/kg/injection, schedule: Q04DX003 (ip), vehicle: saline) of the same compound?
A: 96 % of control

Q: How did the T/C (dose: 5.0 mg/kg/injection, schedule: Q01DX009 (ip), vehicle: other) turn out when C/C(=C\C1C/C(=C/CCc2ccoc2)C(=O)O1)CCCc1ccoc1 (centres undefined) was run?
A: 107 % of control

Q: What about the T/C (dose: 20.0 mg/kg/injection, schedule: Q01DX009 (ip), vehicle: other) of the same compound?
A: 106 % of control

Q: Which results are given for COc1cc2nc(C)n(C)c(=O)c2cc1OC?
A: T/C [4]: 101 % of control; T/C [5]: 99 % of control; T/C [6]: 99 % of control

Q: COC(CBr)OC was tested. Which T/C (dose: 10.0 mg/kg/injection, schedule: Q01DX009 (ip), vehicle: saline) did it give?
A: 102 % of control

Q: What about the T/C (dose: 20.0 mg/kg/injection, schedule: Q01DX009 (ip), vehicle: saline) of the same compound?
A: 98 % of control

Q: What about the T/C (dose: 40.0 mg/kg/injection, schedule: Q01DX009 (ip), vehicle: saline) of the same compound?
A: 98 % of control

Q: With Cc1nc([N+](=O)[O-])cn1CC/C(N)=N/O as the compound, how does the T/C [7] read?
A: 108 % of control

Q: And the T/C [8]?
A: 105 % of control

Q: And the T/C [9]?
A: 115 % of control

Q: With COC(=O)C1CCCCC1NC(C)=O (centres undefined) as the compound, how does the T/C (dose: 100.0 mg/kg/injection, schedule: Q04DX003 (ip), vehicle: saline) read?
A: 95 % of control

Q: And the T/C (dose: 200.0 mg/kg/injection, schedule: Q04DX003 (ip), vehicle: saline)?
A: 100 % of control

Q: What about the T/C (dose: 400.0 mg/kg/injection, schedule: Q04DX003 (ip), vehicle: saline) of the same compound?
A: 91 % of control

Q: For COc1ccc(/C=C/NC=O)cc1, which T/C (dose: 50.0 mg/kg/injection, schedule: Q04DX003 (ip), vehicle: other) is on record?
A: 105 % of control

Q: And the T/C (dose: 100.0 mg/kg/injection, schedule: Q04DX003 (ip), vehicle: other)?
A: 112 % of control

Q: And the T/C (dose: 200.0 mg/kg/injection, schedule: Q04DX003 (ip), vehicle: other)?
A: 112 % of control

Q: And the T/C (dose: 400.0 mg/kg/injection, schedule: Q04DX003 (ip), vehicle: other)?
A: 91 % of control

Q: Which results are given for Cc1cc(N(c2c(Cl)c(Cl)c(NS(=O)(=O)c3ccccc3)c(Cl)c2Cl)S(=O)(=O)c2ccccc2)cc(C)c1N?
A: T/C (dose: 100.0 mg/kg/injection, schedule: Q04DX003 (ip), vehicle: Klucel (hydroxypropylcellulose) (HPC)): 96 % of control; T/C [2]: 92 % of control; T/C (dose: 200.0 mg/kg/injection, schedule: Q04DX003 (ip), vehicle: Klucel (hydroxypropylcellulose) (HPC)): 96 % of control; T/C [3]: 96 % of control; T/C (dose: 400.0 mg/kg/injection, schedule: Q04DX003 (ip), vehicle: Klucel (hydroxypropylcellulose) (HPC)): 88 % of control

Q: With O=C1c2ccccc2C(=O)C1C(C[N+](=O)[O-])c1ccccc1 (centres undefined) as the compound, how does the T/C (dose: 25.0 mg/kg/injection, schedule: Q01DX005 (ip), vehicle: saline with Tween-80) read?
A: 118 % of control

Q: And the T/C (dose: 50.0 mg/kg/injection, schedule: Q01DX005 (ip), vehicle: saline with Tween-80)?
A: 99 % of control

Q: Cc1cc(C(C)(C)CC(C)(C)C)ccc1O was tested. Which T/C (dose: 88.0 mg/kg/injection, schedule: Q01DX009 (sc), vehicle: olive oil, sesame oil, peanut oil) did it give?
A: 100 % of control

Q: What about the T/C (dose: 100.0 mg/kg/injection, schedule: Q01DX009 (sc), vehicle: olive oil, sesame oil, peanut oil) of the same compound?
A: 100 % of control

Q: What about the T/C (dose: 100.0 mg/kg/injection, schedule: Q04DX003 (sc), vehicle: olive oil, sesame oil, peanut oil) of the same compound?
A: 91 % of control

Q: What about the T/C (dose: 133.0 mg/kg/injection, schedule: Q01DX009 (sc), vehicle: olive oil, sesame oil, peanut oil) of the same compound?
A: 92 % of control

Q: And the T/C (dose: 200.0 mg/kg/injection, schedule: Q01DX009 (sc), vehicle: olive oil, sesame oil, peanut oil)?
A: 86 % of control

Q: What about the T/C (dose: 200.0 mg/kg/injection, schedule: Q04DX003 (sc), vehicle: olive oil, sesame oil, peanut oil) of the same compound?
A: 100 % of control

Q: What about the T/C (dose: 300.0 mg/kg/injection, schedule: Q01DX009 (sc), vehicle: olive oil, sesame oil, peanut oil) of the same compound?
A: 106 % of control

Q: And the T/C (dose: 400.0 mg/kg/injection, schedule: Q01DX009 (sc), vehicle: olive oil, sesame oil, peanut oil)?
A: 110 % of control

Q: What about the T/C (dose: 400.0 mg/kg/injection, schedule: Q04DX003 (sc), vehicle: olive oil, sesame oil, peanut oil) of the same compound?
A: 104 % of control

Q: Which results are given for CN1COC(OC2CSC2)C(C)(C)C1 (centres undefined)?
A: T/C [7]: 117 % of control; T/C [8]: 114 % of control; T/C [9]: 115 % of control

Q: With O=C(/C=C/c1ccc(OCc2ccccc2)cc1)c1ccc(Br)cc1 as the compound, how does the T/C [4] read?
A: 91 % of control

Q: What about the T/C [5] of the same compound?
A: 86 % of control

Q: What about the T/C [6] of the same compound?
A: 87 % of control

Q: What does the source list for CN1CC2([N+](=O)[O-])C=CCC([N+](=O)[O-])(C1)C2 (centres undefined)?
A: T/C (dose: 25.0 mg/kg/injection, schedule: Q01DX009 (ip), vehicle: water): 90 % of control; T/C (dose: 50.0 mg/kg/injection, schedule: Q01DX009 (ip), vehicle: water): 115 % of control; T/C [10]: 108 % of control; T/C [11]: 99 % of control

Q: Which T/C (dose: 100.0 mg/kg/injection, schedule: Q01DX001 (ip), vehicle: saline sonified) does the source give for COc1ccc2c(c1C)CCC1(CO)CC(C)=CCC21 (centres undefined) here?
A: 90 % of control

Q: And the T/C (dose: 200.0 mg/kg/injection, schedule: Q01DX001 (ip), vehicle: saline sonified)?
A: 90 % of control

Q: What about the T/C (dose: 400.0 mg/kg/injection, schedule: Q01DX001 (ip), vehicle: saline sonified) of the same compound?
A: 86 % of control

Q: How did the T/C (dose: 50.0 mg/kg/injection, schedule: Q04DX002 (ip), vehicle: saline with Tween-80) turn out when O=C(Nc1nncs1)c1ccncc1 was run?
A: 90 % of control

Q: And the T/C (dose: 200.0 mg/kg/injection, schedule: Q04DX002 (ip), vehicle: saline with Tween-80)?
A: 152 % of control

Q: What about the T/C (dose: 400.0 mg/kg/injection, schedule: Q04DX002 (ip), vehicle: saline with Tween-80) of the same compound?
A: 100 % of control

Q: For CS(=O)c1ncc2cnccn12 (centres undefined), which T/C (dose: 25.0 mg/kg/injection, schedule: Q04DX003 (ip), vehicle: water) is on record?
A: 108 % of control

Q: What about the T/C (dose: 50.0 mg/kg/injection, schedule: Q04DX003 (ip), vehicle: water) of the same compound?
A: 100 % of control

Q: And the T/C [10]?
A: 104 % of control

Q: What about the T/C (dose: 100.0 mg/kg/injection, schedule: Q04DX003 (ip), vehicle: water) of the same compound?
A: 108 % of control

Q: And the T/C [11]?
A: 106 % of control

Q: What does the source list for OC[C@@H](O)[C@@H](O)CO?
A: T/C (dose: 100.0 mg/kg/injection, schedule: Q01DX010 (ip), vehicle: saline): 90 % of control; T/C (dose: 400.0 mg/kg/injection, schedule: Q01DX010 (ip), vehicle: saline): 110 % of control

Q: Which results are given for CC(C)=C(B1OC(C)(C)C(C)(C)O1)B1OC(C)(C)C(C)(C)O1?
A: T/C (dose: 100.0 mg/kg/injection, schedule: Q01DX001 (ip), vehicle: saline with Tween-80): 110 % of control; T/C (dose: 200.0 mg/kg/injection, schedule: Q01DX001 (ip), vehicle: saline with Tween-80): 105 % of control; T/C (dose: 400.0 mg/kg/injection, schedule: Q01DX001 (ip), vehicle: saline with Tween-80): 105 % of control

Q: For O=C(Nc1cccc(C(F)(F)F)c1)Nc1nccs1, which T/C (dose: 25.0 mg/kg/injection, schedule: Q01DX009 (ip), vehicle: Klucel (hydroxypropylcellulose) (HPC)) is on record?
A: 121 % of control

Q: What about the T/C (dose: 50.0 mg/kg/injection, schedule: Q01DX009 (ip), vehicle: Klucel (hydroxypropylcellulose) (HPC)) of the same compound?
A: 111 % of control

Q: And the T/C [1]?
A: 102 % of control

Q: What about the T/C [2] of the same compound?
A: 104 % of control
